Test results reported in PubChem BioAssay AID1963972 (Molecular Pharmacology Branch, DTP, NCI, 2024).
pIC50: −log10 of the molar value.

System: 945468-187-T-J2-PDC spheroids viability
Experiment: Anticancer human tumor 945468-187-T-J2-PDC patient-derived rectal carcinoma cell line growth inhibition [PI3K]
Conditions: spheroids with HUVEC and MSC; for pIC50: curve of first compound; for viability, T/C: stronger effect = lower value
Outline: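 Targeted small molecules plus PI3K inhibitors, half-log dose series from Cmax (default top 10 microM), were applied to heterotypic spheroids of cancer cells with HUVEC and MSCs. Viability indicated growth inhibition.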

[1] = second compound 0.00316 µM, first compound 0.0316 µM
[2] = second compound 0.00316 µM, first compound 0.1 µM
[3] = second compound 0.00316 µM, first compound 0.316 µM
[4] = second compound 0.00316 µM, first compound 1 µM
[5] = second compound 0.00316 µM, first compound 3.16 µM
[6] = second compound 0.00316 µM, first compound 10 µM
[7] = second compound 0.01 µM, first compound 0.0316 µM
[8] = second compound 0.01 µM, first compound 0.1 µM
[9] = second compound 0.01 µM, first compound 0.316 µM
[10] = second compound 0.01 µM, first compound 1 µM
[11] = second compound 0.01 µM, first compound 3.16 µM
[12] = second compound 0.01 µM, first compound 10 µM
[13] = second compound 0.0316 µM, first compound 0.0316 µM
[14] = second compound 0.0316 µM, first compound 0.1 µM
[15] = second compound 0.0316 µM, first compound 0.316 µM
[16] = second compound 0.0316 µM, first compound 1 µM
[17] = second compound 0.0316 µM, first compound 3.16 µM
[18] = second compound 0.0316 µM, first compound 10 µM
[19] = second compound 0.1 µM, first compound 0.0316 µM
[20] = second compound 0.1 µM, first compound 0.1 µM
[21] = second compound 0.1 µM, first compound 0.316 µM
[22] = second compound 0.1 µM, first compound 1 µM
[23] = second compound 0.1 µM, first compound 3.16 µM
[24] = second compound 0.1 µM, first compound 10 µM
[25] = second compound 0.316 µM, first compound 0.0316 µM
[26] = second compound 0.316 µM, first compound 0.1 µM
[27] = second compound 0.316 µM, first compound 0.316 µM
[28] = second compound 0.316 µM, first compound 1 µM
[29] = second compound 0.316 µM, first compound 3.16 µM
[30] = second compound 0.316 µM, first compound 10 µM
[31] = second compound 1 µM, first compound 0.0316 µM
[32] = second compound 1 µM, first compound 0.1 µM
[33] = second compound 1 µM, first compound 0.316 µM
[34] = second compound 1 µM, first compound 1 µM
[35] = second compound 1 µM, first compound 3.16 µM
[36] = second compound 1 µM, first compound 10 µM
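Note: spheroids exposed to compounds for seven days before reading.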

## CC(C)NCC(C(=O)N1CCN(c2ncnc3c2C(C)CC3O)CC1)c1ccc(Cl)cc1 (stereo unspecified) + COc1c(OCCCN2CCOCC2)ccc2c3n(c(=NC(=O)c4cnc(N)nc4)nc12)CCN3
Second compound 0.00316 µM
  pIC50: < 5.00
Second compound 0.01 µM
  pIC50: < 5.00
Second compound 0.0316 µM
  pIC50: < 5.00
Second compound 0.1 µM
  pIC50: < 5.00
Second compound 0.316 µM
  pIC50: > 7.50
Second compound 1 µM
  pIC50: > 7.50
[1]
  viability, T/C: 88.9%
[2]
  viability, T/C: 110%
[3]
  viability, T/C: 129%
[4]
  viability, T/C: 106%
[5]
  viability, T/C: 110%
[6]
  viability, T/C: 90.3%
[7]
  viability, T/C: 104%
[8]
  viability, T/C: 109%
[9]
  viability, T/C: 111%
[10]
  viability, T/C: 87.7%
[11]
  viability, T/C: 90.2%
[12]
  viability, T/C: 86.6%
[13]
  viability, T/C: 83.6%
[14]
  viability, T/C: 125%
[15]
  viability, T/C: 112%
[16]
  viability, T/C: 103%
[17]
  viability, T/C: 84%
[18]
  viability, T/C: 101%
[19]
  viability, T/C: 87.2%
[20]
  viability, T/C: 106%
[21]
  viability, T/C: 120%
[22]
  viability, T/C: 80.5%
[23]
  viability, T/C: 82.3%
[24]
  viability, T/C: 86.1%
[25]
  viability, T/C: 47.1%
[26]
  viability, T/C: 51.6%
[27]
  viability, T/C: 39.7%
[28]
  viability, T/C: 44.6%
[29]
  viability, T/C: 45.4%
[30]
  viability, T/C: 36.8%
[31]
  viability, T/C: 21%
[32]
  viability, T/C: 21.3%
[33]
  viability, T/C: 23.3%
[34]
  viability, T/C: 20.9%
[35]
  viability, T/C: 24.6%
[36]
  viability, T/C: 21.6%

## CCN1CCN(Cc2ccc(Nc3ncc(F)c(-c4cc(F)c5nc(C)n(C(C)C)c5c4)n3)nc2)CC1 + COc1c(OCCCN2CCOCC2)ccc2c3n(c(=NC(=O)c4cnc(N)nc4)nc12)CCN3
Second compound 0.00316 µM
  pIC50: < 6.00
Second compound 0.01 µM
  pIC50: < 6.00
Second compound 0.0316 µM
  pIC50: 6.15
Second compound 0.1 µM
  pIC50: 6.70
Second compound 0.316 µM
  pIC50: > 8.50
Second compound 1 µM
  pIC50: > 8.50
Second compound 0.00316 µM, first compound 0.00316 µM
  viability, T/C: 107%
Second compound 0.00316 µM, first compound 0.01 µM
  viability, T/C: 93.5%
[1]
  viability, T/C: 104%
[2]
  viability, T/C: 102%
[3]
  viability, T/C: 87.6%
[4]
  viability, T/C: 75.1%
Second compound 0.01 µM, first compound 0.00316 µM
  viability, T/C: 119%
Second compound 0.01 µM, first compound 0.01 µM
  viability, T/C: 128%
[7]
  viability, T/C: 94.9%
[8]
  viability, T/C: 115%
[9]
  viability, T/C: 84%
[10]
  viability, T/C: 66.2%
Second compound 0.0316 µM, first compound 0.00316 µM
  viability, T/C: 120%
Second compound 0.0316 µM, first compound 0.01 µM
  viability, T/C: 110%
[13]
  viability, T/C: 92.9%
[14]
  viability, T/C: 112%
[15]
  viability, T/C: 69%
[16]
  viability, T/C: 41.6%
Second compound 0.1 µM, first compound 0.00316 µM
  viability, T/C: 105%
Second compound 0.1 µM, first compound 0.01 µM
  viability, T/C: 91.8%
[19]
  viability, T/C: 93.1%
[20]
  viability, T/C: 72.7%
[21]
  viability, T/C: 34.4%
[22]
  viability, T/C: 22.1%
Second compound 0.316 µM, first compound 0.00316 µM
  viability, T/C: 48.7%
Second compound 0.316 µM, first compound 0.01 µM
  viability, T/C: 41.2%
[25]
  viability, T/C: 39.5%
[26]
  viability, T/C: 24.4%
[27]
  viability, T/C: 20.2%
[28]
  viability, T/C: 21.4%
Second compound 1 µM, first compound 0.00316 µM
  viability, T/C: 21.7%
Second compound 1 µM, first compound 0.01 µM
  viability, T/C: 20.8%
[31]
  viability, T/C: 14.1%
[32]
  viability, T/C: 17.9%
[33]
  viability, T/C: 14.3%
[34]
  viability, T/C: 16.3%

## Cn1ncc(Cl)c1-c1cc(C(=O)NC(CN)Cc2cccc(F)c2)sc1Cl (stereo unspecified) + COc1c(OCCCN2CCOCC2)ccc2c3n(c(=NC(=O)c4cnc(N)nc4)nc12)CCN3
Second compound 0.00316 µM
  pIC50: < 5.00
Second compound 0.01 µM
  pIC50: < 5.00
Second compound 0.0316 µM
  pIC50: 5.34
Second compound 0.1 µM
  pIC50: 5.58
Second compound 0.316 µM
  pIC50: > 7.50
Second compound 1 µM
  pIC50: > 7.50
[1]
  viability, T/C: 109%
[2]
  viability, T/C: 75.3%
[3]
  viability, T/C: 98.3%
[4]
  viability, T/C: 110%
[5]
  viability, T/C: 76.8%
[6]
  viability, T/C: 50.6%
[7]
  viability, T/C: 109%
[8]
  viability, T/C: 102%
[9]
  viability, T/C: 90.5%
[10]
  viability, T/C: 86.6%
[11]
  viability, T/C: 77.2%
[12]
  viability, T/C: 53.3%
[13]
  viability, T/C: 87.3%
[14]
  viability, T/C: 82.5%
[15]
  viability, T/C: 82.4%
[16]
  viability, T/C: 68.9%
[17]
  viability, T/C: 54.3%
[18]
  viability, T/C: 41.4%
[19]
  viability, T/C: 65.6%
[20]
  viability, T/C: 84.9%
[21]
  viability, T/C: 75.2%
[22]
  viability, T/C: 73%
[23]
  viability, T/C: 46%
[24]
  viability, T/C: 32.2%
[25]
  viability, T/C: 38.8%
[26]
  viability, T/C: 34.8%
[27]
  viability, T/C: 35.4%
[28]
  viability, T/C: 28.8%
[29]
  viability, T/C: 32.2%
[30]
  viability, T/C: 26.1%
[31]
  viability, T/C: 18.5%
[32]
  viability, T/C: 18.8%
[33]
  viability, T/C: 18.2%
[34]
  viability, T/C: 19.6%
[35]
  viability, T/C: 18.4%
[36]
  viability, T/C: 14.2%
